Laboratory results from US5591758A, “Organic nitrates, processes for their preparation and their use in the treatment of cardiovascular diseases” (Laboratoires Hoechst, SA, priority 1991, dated 1997).
Where “and” joins values, the source holds several entries; their conditions need not be identical. Identical values can stand only once.

Test system: anaesthetised dogs
Experiment: Tachyphylaxis model on anaesthetised dogs (repeated i.d. administration)
Format: in vivo, dogs (labrador/harrier cross)
Set-up: Δdp/dt average / ΔBPs / ΔBPd / ΔLVEDP / ΔHR / ΔBPs average / ΔBPd average / ΔLVEDP average / ΔHR average: unit not given here
Settings: for ΔBPd / ΔBPs / ΔHR / ΔLVEDP / Δdp/dt: single dog
Method: Comparison with isosorbide mononitrate (IS-5-MN).
The product (46) is tested in a tachyphylaxis model on anaesthetised dogs. IS-5-MN is used as reference substance.
8 dogs of each sex, weighing between 16 and 24 kg, are used. These dogs are the progeny of a labrador/harrier cross. Anaesthesia is induced with the aid of sodium pentobarbital (45 mg/kg i.v.) and maintained by i.v. perfusion (flow rate: 8 mg/kg/h). The animals are ventilated, with the aid of a "Bird Mark 7" respirator, using ambient air, and catheterised. […] The arterial blood gases are measured at regular intervals.
IS-5-MN is also dissolved in water and given i.d. in a dosage of 5 mg/kg in a volume of 10 ml/animal.
Three hours (in the case of IS-5-MN) or four hours (in the case of (46)) after the first administration, the compounds are readministered in the same dosage and by the same route. The haemodynamic parameter chosen for the study of the tachyphylaxis is the systolic blood pressure (BPs), insofar as this parameter is very sensitive to the administration of the compounds.

[1] = 1st administration, 5 mg/kg i.d., 5 min
[2] = 1st administration, 5 mg/kg i.d., 10 min
[3] = 1st administration, 5 mg/kg i.d., 15 min
[4] = 1st administration, 5 mg/kg i.d., 30 min
[5] = 1st administration, 5 mg/kg i.d., 60 min
[6] = 1st administration, 5 mg/kg i.d., 120 min
[7] = 1st administration, 5 mg/kg i.d., 180 min
[8] = i.d., IS-5-MN 5 mg/kg, (46) 0.75 mg/kg
[9] = n = 4, 2nd administration, 5 mg/kg i.d., 5 min
[10] = n = 4, 2nd administration, 5 mg/kg i.d., 10 min
[11] = n = 4, 2nd administration, 5 mg/kg i.d., 15 min
[12] = n = 4, 2nd administration, 5 mg/kg i.d., 30 min
[13] = n = 4, 2nd administration, 5 mg/kg i.d., 60 min
[14] = n = 4, 2nd administration, 5 mg/kg i.d., 120 min
[15] = n = 4, 2nd administration, 5 mg/kg i.d., 180 min
[16] = 1st administration, 5 mg/kg i.d., 5 min, 5 mg/kg
[17] = 1st administration, 5 mg/kg i.d., 10 min, 5 mg/kg
[18] = 1st administration, 5 mg/kg i.d., 15 min, 5 mg/kg
[19] = 1st administration, 5 mg/kg i.d., 30 min, 5 mg/kg
[20] = 1st administration, 5 mg/kg i.d., 60 min, 5 mg/kg
[21] = 1st administration, 5 mg/kg i.d., 120 min, 5 mg/kg
[22] = 1st administration, 5 mg/kg i.d., 180 min, 5 mg/kg
[23] = 2nd administration, 5 mg/kg i.d., 5 min, 5 mg/kg
[24] = 2nd administration, 5 mg/kg i.d., 10 min, 5 mg/kg
[25] = 2nd administration, 5 mg/kg i.d., 15 min, 5 mg/kg
[26] = 2nd administration, 5 mg/kg i.d., 30 min, 5 mg/kg
[27] = 2nd administration, 5 mg/kg i.d., 60 min, 5 mg/kg
[28] = 2nd administration, 5 mg/kg i.d., 120 min, 5 mg/kg
[29] = 2nd administration, 5 mg/kg i.d., 180 min, 5 mg/kg

Compound: O=[N+]([O-])O[C@@H]1CO[C@H]2[C@@H]1OC[C@@H]2O [IS-5-MN, isosorbide 5-mononitrate, reference compound]
- fall in the BPs, first administration, on average (5 mg/kg i.d.): -30 mmHg
- return of BP to control value after second administration (5 mg/kg i.d.): rapid return to the control value
- ΔBPd average [1]: -21
- ΔBPs average [1]: -30
- ΔLVEDP average [1]: -3
- Δdp/dt average [1]: -175
- ΔBPd average [2]: -18
- ΔBPs average [2]: -26
- ΔLVEDP average [2]: -3
- Δdp/dt average [2]: -175
- ΔBPd average [3]: -16
- ΔBPs average [3]: -25
- ΔLVEDP average [3]: -3
- Δdp/dt average [3]: -150
- ΔBPd average [4]: -13
- ΔBPs average [4]: -24
- ΔLVEDP average [4]: -3
- Δdp/dt average [4]: -175
- ΔBPd average [5]: -12
- ΔBPs average [5]: -23
- ΔLVEDP average [5]: -1
- Δdp/dt average [5]: -200
- ΔBPd average [6]: 3
- ΔBPs average [6]: -5
- ΔLVEDP average [6]: -2
- Δdp/dt average [6]: 75
- ΔBPd average [7]: 3
- ΔBPs average [7]: -4
- ΔLVEDP average [7]: -2
- Δdp/dt average [7]: 100
- development of tachyphylaxis after repeated administration (dogs, two i.d. administrations): tachyphylaxis after repeated administration
- maximum fall in the BP after second administration [8]: -19 mmHg
- time of maximum effect on BPs after first administration [8]: 5 min
- time of maximum fall in the BP after second administration [8]: 5 min
- ΔBPd average [9]: -13
- ΔBPs average [9]: -19
- ΔLVEDP average [9]: -1
- Δdp/dt average [9]: -125
- ΔBPd average [10]: -11
- ΔBPs average [10]: -15
- ΔLVEDP average [10]: -2
- Δdp/dt average [10]: -75
- ΔBPd average [11]: -9
- ΔBPs average [11]: -13
- ΔLVEDP average [11]: -1
- Δdp/dt average [11]: -100
- ΔBPd average [12]: -5
- ΔBPs average [12]: -9
- ΔLVEDP average [12]: -1
- Δdp/dt average [12]: 0
- ΔBPd average [13]: -4
- ΔBPs average [13]: -7
- ΔLVEDP average [13]: -2
- Δdp/dt average [13]: 50
- ΔBPd average [14]: -5
- ΔBPs average [14]: -6
- ΔLVEDP average [14]: -1
- Δdp/dt average [14]: 100
- ΔBPd average [15]: -1
- ΔBPs average [15]: -4
- ΔLVEDP average [15]: -2
- Δdp/dt average [15]: 175
- ΔBPd [16]: -15 and -25 and -20
- ΔBPs [16]: -25 and -35 and -30
- ΔHR [16]: 0 and 5
- ΔLVEDP [16]: -3 and -4 and -2
- Δdp/dt [16]: -200 and -100 and -300
- ΔBPd [17]: -15 and -20
- ΔBPs [17]: -25 and -30
- ΔHR [17]: 0 and 5
- ΔLVEDP [17]: -3 and -5 and -1
- Δdp/dt [17]: -300 and 0 and -100
- ΔBPd [18]: -15 and -10 and -20
- ΔBPs [18]: -25 and -20 and -30
- ΔHR [18]: -5 and 5 and 0
- ΔLVEDP [18]: -3 and -5 and -1
- Δdp/dt [18]: -200 and 0 and -100 and -300
- ΔBPd [19]: -15 and -10
- ΔBPs [19]: -35 and -20 and -25 and -15
- ΔHR [19]: -15 and 5 and 0
- ΔLVEDP [19]: -1 and -5 and -3
- Δdp/dt [19]: -300 and 0 and -100
- ΔBPd [20]: -20 and 0 and -15
- ΔBPs [20]: -35 and -10 and -25 and -20
- ΔHR [20]: -20 and 10 and -5 and 0
- ΔLVEDP [20]: 0 and -2 and -3 and -1
- Δdp/dt [20]: -400 and 0 and -100 and -300
- ΔBPd [21]: 10 and 0 and -5 and 5
- ΔBPs [21]: 0 and -15 and -5
- ΔHR [21]: 0 and 10 and 5
- ΔLVEDP [21]: -1 and -3 and -2
- Δdp/dt [21]: 400 and 0 and -100
- Δdp/dt [7]: 100
- ΔBPd [22]: 5 and 0 and -5 and 10
- ΔBPs [22]: -5 and 0 and -15 and 5
- ΔHR [22]: -5 and 10 and 5
- ΔLVEDP [22]: -3 and -1 and -5 and 0
- ΔBPd [23]: -5 and -15
- ΔBPs [23]: -15 and -20
- ΔHR [23]: 0 and 5
- ΔLVEDP [23]: -2 and 0
- Δdp/dt [23]: -200 and -100
- ΔBPs (2nd administration, 5 mg/kg i.d., 10 min): -15
- ΔBPd [24]: -5 and -15
- ΔHR [24]: 0 and 5
- ΔLVEDP [24]: -2 and -1
- Δdp/dt [24]: -200 and 0 and -100
- Δdp/dt (2nd administration, 5 mg/kg i.d., 15 min): -100
- ΔBPd [25]: -5 and -15 and -10
- ΔBPs [25]: -15 and -10
- ΔHR [25]: -5 and 0 and 5
- ΔLVEDP [25]: -2 and -1 and 0
- Δdp/dt (2nd administration, 5 mg/kg i.d., 30 min): 0
- ΔBPd [26]: 0 and -10 and -5
- ΔBPs [26]: -10 and -5
- ΔHR [26]: 0 and 5
- ΔLVEDP [26]: -2 and -1 and 0
- ΔBPd [27]: 5 and -10 and 0
- ΔBPs [27]: 0 and -10 and -15 and -5
- ΔHR [27]: 5 and 0 and -5
- ΔLVEDP [27]: -2 and -3 and -1
- Δdp/dt [27]: 100 and 0 and -100 and 200
- ΔBPd [28]: 0 and -15 and -5
- ΔBPs [28]: -5 and -15 and 0
- ΔHR [28]: 5 and -5 and 10
- ΔLVEDP [28]: -2 and 1
- Δdp/dt [28]: 0 and 100 and 300
- ΔBPd [29]: 0 and -5
- ΔBPs [29]: -5 and 0
- ΔHR [29]: 5 and 15 and 0
- ΔLVEDP [29]: -2 and -3 and -1
- Δdp/dt [29]: 100 and 200 and 300
